Legend:
[1] = biological target: T1, Dihydroorotate dehydrogenase (Plasmodium falciparum) (UniProt Q54A96); test: Inhibition of Plasmodium falciparum DHODH at 50 uM
T1 sequence (whole entry): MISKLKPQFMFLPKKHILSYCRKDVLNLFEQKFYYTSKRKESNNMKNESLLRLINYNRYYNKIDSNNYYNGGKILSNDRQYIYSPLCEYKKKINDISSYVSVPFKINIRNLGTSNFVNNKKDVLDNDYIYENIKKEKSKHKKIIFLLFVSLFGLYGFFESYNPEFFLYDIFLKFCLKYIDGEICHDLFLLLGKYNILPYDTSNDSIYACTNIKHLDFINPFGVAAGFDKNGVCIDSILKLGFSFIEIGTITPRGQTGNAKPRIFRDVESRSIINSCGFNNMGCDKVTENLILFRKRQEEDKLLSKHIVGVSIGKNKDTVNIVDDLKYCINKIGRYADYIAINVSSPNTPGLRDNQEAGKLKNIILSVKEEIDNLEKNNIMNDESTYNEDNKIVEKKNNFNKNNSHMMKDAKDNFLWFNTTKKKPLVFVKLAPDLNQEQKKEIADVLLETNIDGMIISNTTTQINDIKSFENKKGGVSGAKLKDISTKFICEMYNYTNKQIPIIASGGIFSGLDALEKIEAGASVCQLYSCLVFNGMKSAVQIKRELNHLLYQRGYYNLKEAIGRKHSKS

[2] = biological target: Dihydroorotate dehydrogenase (quinone), mitochondrial (Homo sapiens) (UniProt Q02127); test: Inhibition of human DHODH at 50 uM
Chain of Dihydroorotate dehydrogenase (quinone), mitochondrial (Homo sapiens) (Q02127 whole entry): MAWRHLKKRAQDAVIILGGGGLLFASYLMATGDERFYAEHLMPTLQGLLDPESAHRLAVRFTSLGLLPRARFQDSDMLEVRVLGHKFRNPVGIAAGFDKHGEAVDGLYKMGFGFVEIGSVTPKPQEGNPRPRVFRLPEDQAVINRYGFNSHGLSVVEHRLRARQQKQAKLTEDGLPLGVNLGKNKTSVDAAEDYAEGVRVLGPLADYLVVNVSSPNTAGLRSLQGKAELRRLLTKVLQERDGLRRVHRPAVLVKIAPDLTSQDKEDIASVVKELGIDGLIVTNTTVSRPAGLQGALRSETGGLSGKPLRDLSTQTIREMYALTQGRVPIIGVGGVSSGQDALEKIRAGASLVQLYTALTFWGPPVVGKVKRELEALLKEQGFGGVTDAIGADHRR

Row | Structure (SMILES) | inhibition [1] [%] | inhibition [2] [%]
1 | CCOC(=O)/C(C#N)=C\Nc1ccc(C(=O)OCC)c(Cl)c1 | 66 | 12
2 | CCOC(=O)C(=CNc1cccc(C(=O)OCC)c1)C(=O)OCC | 0 | 5
3 | CCOC(=O)/C(C#N)=C\Nc1ccc(Cl)c(C(=O)O)c1 | 44 | 45
4 | CCOC(=O)C(=CNc1cccc(C(=O)O)c1)C(=O)OCC | 54 | 33
5 | CCOC(=O)/C(C#N)=C\Nc1ccc(C(=O)O)cc1 | 0 | 29
6 | CCOC(=O)C(=CNc1ccc(Cl)c(C(=O)OCC)c1)C(=O)OCC | 39 | 16
7 | CC1(C)OC(=O)C(=CNc2cccc(C(=O)O)c2)C(=O)O1 | 25 | 27
8 | CC1(C)OC(=O)C(=CNc2ccc(C(=O)O)cc2)C(=O)O1 | 28 | 32
9 | CCOC(=O)C(=CNc1ccc(C(=O)OCC)c(Cl)c1)C(=O)OCC | 60 | 8
10 | CCOC(=O)/C(C#N)=C\Nc1ccc(Cl)c(C(=O)OCC)c1 | 24 | 14
11 | CCOC(=O)C(=CNc1ccc(Cl)c(C(=O)O)c1)C(=O)OCC | 37 | 39
12 | CCOC(=O)C(=CNc1ccc(C(=O)OCC)cc1)C(=O)OCC | 15 | 4
13 | CCOC(=O)c1cccc(NC=C2C(=O)OC(C)(C)OC2=O)c1 | 0 | 1

Results, then the compound that gave them:

Row | inhibition [1] [%] | inhibition [2] [%] | Structure (SMILES)
14 | 43 | 37 | CCOC(=O)C(=CNc1ccc(C(=O)O)cc1)C(=O)OCC
15 | 41 | 21 | CC1(C)OC(=O)C(=CNc2ccc(C(=O)O)c(Cl)c2)C(=O)O1
16 | 23 | 2 | CCOC(=O)/C(C#N)=C\Nc1cccc(C(=O)OCC)c1
17 | 2 | 2 | CCOC(=O)/C(C#N)=C\Nc1ccc(C(=O)OCC)cc1
18 | 50 | 21 | CC1(C)OC(=O)C(=CNc2ccc(Cl)c(C(=O)O)c2)C(=O)O1
19 | 0 | 23 | CCOC(=O)/C(C#N)=C\Nc1cccc(C(=O)O)c1
20 | 12 | 0 | CCOC(=O)c1ccc(NC=C2C(=O)OC(C)(C)OC2=O)cc1Cl
21 | 0 | 5 | CCOC(=O)c1cc(NC=C2C(=O)OC(C)(C)OC2=O)ccc1Cl
22 | 33 | 39 | CCOC(=O)/C(C#N)=C\Nc1ccc(C(=O)O)c(Cl)c1
23 | 0 | 3 | CCOC(=O)c1ccc(NC=C2C(=O)OC(C)(C)OC2=O)cc1

From ChEMBL document CHEMBL1159041, “A study of the effects of substituents on the selectivity of the binding of N-arylaminomethylene malonate inhibitors to DHODH” (Bioorg Med Chem Lett, 2010)
